Values quoted from earlier work, collected in patent US20240299434A1, “URIDINE TRIACETATE AMORPHOUS FORMULATION” (PHARMA CINQ. LLC, priority 2021, published 2024).
Where two headings read alike, the source gives them in different places.

What was measured:
[1] = humans
[2] = mice

oral bioavailability [1] | oral bioavailability [2] | SMILES | solubility in water
 |  | CC(=O)OC[C@H]1O[C@@H](n2ccc(=O)[nH]c2=O)[C@H](OC(C)=O)[C@@H]1OC(C)=O [Uridine triacetate, 2′,3′,5′-Tri-O-acetyluridine] | approximately 10 milligrams per milliliter
approximately 7% | approximately 7% | O=c1ccn([C@@H]2O[C@H](CO)[C@@H](O)[C@H]2O)c(=O)[nH]1 [uridine] | 
